Experimental data reported in patent US12516016B2, “GPX4 inhibitors, pharmaceutical compositions thereof, and their use for treating GPX4-mediated diseases” (EUBULUS BIOTHERAPEUTICS (HONG KONG) LIMITED, priority 2020, dated 2026).

These molecules were tested on hepatocellular carcinoma cell line Hub-7 (assay: Cell proliferation assay (CELL-TITER GLO cell viability)). Conditions: 24 h, Hub-7 cells, 24 h incubation, read-out: Inhibition of Cell Proliferation EC50.
Type: cell-based
Summary of the method: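 […] cells (4,000/well) seeded overnight, then exposed 24 h to compound from 10 μM in 3-fold serial dilutions. Viability read by CELL-TITER GLO luminescence; EC50 values derived.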

| Structure (SMILES) | EC50 |
| --- | --- |
| C#CC(=O)N(c1cccc(Cl)c1)C1(C(=O)NCc2ccccc2)CCOCC1 [A80, N-Benzyl-4-(N-(3-chlorophenyl)propiolamido)tetrahydro-2H-pyran-4-carboxamide] | ≤ 100 nM |
| COC(=O)c1cccc(N(C(=O)CCl)C(C(=O)NCCc2ccccc2)c2ccc([N+](=O)[O-])cc2)c1 (centres unmarked) [C7, Methyl-3-(2-chloro-N-(1-(4-nitrophenyl)-2-oxo-2-(phenethylamino)ethyl)-acetamido)benzoate] | 100 to 500 nM |
| O=C(NCCc1ccccc1)C(c1ccc([N+](=O)[O-])cc1)N(Cc1cccs1)C(=O)CCl (centres unmarked) [C8, 2-Chloro-N-(1-(4-nitrophenyl)-2-oxo-2-(phenethylamino)ethyl)-N-(thiophen-2-ylmethyl)acetamide] | 2000 to 10000 nM |
| O=C(NCCc1ccccc1)C(c1ccc([N+](=O)[O-])cc1)N(C(=O)CCl)c1cccc(O)c1 (centres unmarked) [C9, 2-Chloro-N-(3-hydroxyphenyl)-N-(1-(4-nitrophenyl)-2-oxo-2-(phenethylamino)-ethyl)acetamide] | 2000 to 10000 nM |
| COc1cccc(N(C(=O)CCl)C(C(=O)NCCc2ccccc2)c2ccc([N+](=O)[O-])cc2)c1 (centres unmarked) [C10, 2-Chloro-N-(3-methoxyphenyl)-N-(1-(4-nitrophenyl)-2-oxo-2-(phenethylamino)-ethyl)acetamide] | 100 to 500 nM |
| CC(=O)Nc1cccc(N(C(=O)CCl)C(C(=O)NCCc2ccccc2)c2ccc([N+](=O)[O-])cc2)c1 (centres unmarked) [C11, N-(3-Acetamidophenyl)-2-chloro-N-(1-(4-nitrophenyl)-2-oxo-2-(phenethyl-amino)ethyl)acetamide] | 2000 to 10000 nM |
| O=C(NCCc1ccccc1)C(c1ccc([N+](=O)[O-])cc1)N(Cc1ccccc1)C(=O)CCl (centres unmarked) [C12, N-Benzyl-2-chloro-N-(1-(4-nitrophenyl)-2-oxo-2-(phenethylamino)ethyl)-acetamide] | 2000 to 10000 nM |
| COc1ccc(N(C(=O)CCl)C(C)C(=O)NCCc2ccccc2)cc1Cl (centres unmarked) [C14] | 500 to 2000 nM |
| O=C(CCl)N(c1ccc2c(c1)OCO2)C1(C(=O)NCc2ccccc2)CCOCC1 [C19, 4-(N-(Benzo[d][1,3]dioxol-5-yl)-2-chloroacetamido)-N-benzyltetrahydro-2H-pyran-4-carboxamide] | 2000 to 10000 nM |
| COc1ccc(N(C(=O)CCl)C2(C(=O)NCCc3ccccc3)CCC(F)(F)CC2)cc1Cl [C20, 1-(2-Chloro-N-(3-chloro-4-methoxyphenyl)acetamido)-4,4-difluoro-N-phenethyl-cyclohexane-1-carboxamide] | 100 to 500 nM |
| Cn1ncc2cc(N(C(=O)CCl)C3(C(=O)NCc4ccccc4)CCOCC3)ccc21 [C21, N-Benzyl-4-(2-chloro-N-(1-methyl-1H-indazol-5-yl)acetamido)tetrahydro-2H-pyran-4-carboxamide] | 500 to 2000 nM |
| Cn1ncc2cc(N(C(=O)CCl)C3(C(=O)NCCc4ccccc4)CCOCC3)ccc21 [C22, 4-(2-Chloro-N-(1-methyl-1H-indazol-5-yl)acetamido)-N-phenethyltetrahydro-2H-pyran-4-carboxamide] | 500 to 2000 nM |
| CC(Cl)C(=O)N(c1ccc2c(cnn2C)c1)C1(C(=O)NCc2ccccc2)CCOCC1 (centres unmarked) [C24, N-Benzyl-4-(2-chloro-N-(1-methyl-1H-indazol-5-yl)propanamido)tetrahydro-2H-pyran-4-carboxamide] | > 10000 nM |
| COc1ccc(N(C(=O)CCl)C2(C(=O)NCc3ccccc3)CCOCC2)cc1Cl [C25, N-Benzyl-4-(2-chloro-N-(3-chloro-4-methoxyphenyl)acetamido)tetrahydro-2H-pyran-4-carboxamide] | 100 to 500 nM |
| COc1ccc(N(C(=O)CCl)C2(C(=O)NCCc3ccccc3)CCOCC2)cc1Cl [C26, 4-(2-Chloro-N-(3-chloro-4-methoxyphenyl)acetamido)-N-phenethyltetrahydro-2H-pyran-4-carboxamide] | ≤ 100 nM |
| COc1ccc(N(C(=O)CCl)C2(C(=O)NCc3ccccc3)CCC(F)(F)CC2)cc1Cl [C27, N-Benzyl-1-(2-chloro-N-(3-chloro-4-methoxyphenyl)acetamido)-4,4-difluoro-cyclohexane-1-carboxamide] | ≤ 100 nM |
| O=C(CCl)N(c1cccc2nsnc12)C1(C(=O)NCc2ccccc2)CCOCC1 [C28, 4-(N-(Benzo[c][1,2,5]thiadiazol-4-yl)-2-chloroacetamido)-N-benzyltetrahydro-2H-pyran-4-carboxamide] | 100 to 500 nM |
| O=C(CCl)N(c1cccc2nsnc12)C1(C(=O)NCCc2ccccc2)CCOCC1 [C29, 4-(N-(Benzo[c][1,2,5]thiadiazol-4-yl)-2-chloroacetamido)-N-phenethyltetrahydro-2H-pyran-4-carboxamide] | 500 to 2000 nM |
| Cn1ncc2cc(N(C(=O)C3CO3)C3(C(=O)NCc4ccccc4)CCOCC3)ccc21 (centres unmarked) [C30, N-Benzyl-4-(N-(1-methyl-1H-indazol-5-yl)oxirane-2-carboxamido)tetrahydro-2H-pyran-4-carboxamide] | > 10000 nM |

The remaining lines, values ahead:

| EC50 | Structure (SMILES) |
| --- | --- |
| > 10000 nM | Cn1ncc2cc(N(C(=O)C(F)F)C3(C(=O)NCc4ccccc4)CCOCC3)ccc21 [D1, N-Benzyl-4-(2,2-difluoro-N-(1-methyl-1H-indazol-5-yl)acetamido)tetrahydro-2H-pyran-4-carboxamide] |
| > 10000 nM | CC(=O)N(c1ccc2c(cnn2C)c1)C1(C(=O)NCc2ccccc2)CCCOC1 (centres unmarked) [D2, N-Benzyl-3-(N-(1-methyl-1H-indazol-5-yl)acetamido)tetrahydro-2H-pyran-3-carboxamide] |
| > 10000 nM | Cn1ncc2cc(N(C(=O)CO)C3(C(=O)NCc4ccccc4)CCOCC3)ccc21 [D3, N-Benzyl-4-(2-hydroxy-N-(1-methyl-1H-indazol-5-yl)acetamido)tetrahydro-2H-pyran-4-carboxamide] |
| > 10000 nM | CCC(=O)N(c1cccc(Cl)c1)C(C(=O)NCc1ccccc1)c1ccc(N)cc1 (centres unmarked) [D4, N-(1-(4-Aminophenyl)-2-(benzylamino)-2-oxoethyl)-N-(3-chlorophenyl)-propionamide] |
| > 10000 nM | Cn1ncc2cc(N(C(=O)CCCl)C3(C(=O)NCc4ccccc4)CCOCC3)ccc21 [D5, N-Benzyl-4-(3-chloro-N-(1-methyl-1H-indazol-5-yl)propanamido)tetrahydro-2H-pyran-4-carboxamide] |
| > 10000 nM | Cn1ncc2cc(N(C(=O)CCBr)C3(C(=O)NCc4ccccc4)CCOCC3)ccc21 [D6, N-Benzyl-4-(3-bromo-N-(1-methyl-1H-indazol-5-yl)propanamido)tetrahydro-2H-pyran-4-carboxamide] |
| > 10000 nM | N#CCC(=O)N(c1cccc(Cl)c1)C1(C(=O)NCc2ccccc2)CCOCC1 [D7, N-Benzyl-4-(N-(3-chlorophenyl)-2-cyanoacetamido)tetrahydro-2H-pyran-4-carboxamide] |

Same assay, conditions: Hub-7 cells, 24 h incubation, control, read-out: EC50

| EC50 | Structure (SMILES) |
| --- | --- |
| 138 nM | COc1ccc(N(C(=O)CCl)C(C(=O)NCCc2ccccc2)c2cccs2)cc1Cl (centres unmarked) [ML-162, reference compound] |

Same assay, conditions: Hub-7 cells, 24 h incubation, read-out: Inhibition of Cell Proliferation EC50

| EC50 | Structure (SMILES) |
| --- | --- |
| 2000 to 10000 nM | Nc1cccc(N(C(=O)CCl)C(C(=O)NCCc2ccccc2)c2cccs2)c1 (centres unmarked) [C13] |
| 100 to 500 nM | COc1ccc(N(C(=O)CCl)C(C(=O)NCCc2ccccc2)c2cccs2)cc1Cl (centres unmarked) [ML-162, reference compound] |

What follows are molecules tested on hepatocellular carcinoma cell line (assay: Anti-proliferation activity in the presence of a ferroptosis inhibitor). Conditions: in the presence of ferrostatin-1 (1 μM); read-out: Inhibition of Cell Proliferation EC50, Ferrostatin-1.
Type: cell-based
Method: (§1) The activity of a test compound was determined in a cell proliferation assay using the hepatocellular carcinoma cell line […]. Cells (4,000 cells per well) were seeded in a 96-well tissue culture plate. After incubated overnight, a test compound was added at predetermined concentrations, starting with 10 μM and followed by 3-fold serial dilution. After the cells were incubated for 24 h, cell viability was determined using a CELL-TITER GLO® assay. The CELL-TITER GLO® reagent (50 μL) was added to each well and the luminescence was measured by a multimode microplate reader after a brief period of shaking. EC50 values were determined for the test compound. The results are summarized in Table 1, wherein A represents a value no greater than 100 nM, B represents a value greater than 100 nM but no greater than 500 nM, C represents a value greater than 500 nM but no greater than 2 μM, D represents a value greater than 2 μM but no greater than 10 μM; and E represents a value greater than 10 μM.
(§2) The anti-proliferation activity of compound 80 was tested in the presence of an ferroptosis inhibitor, ferrostatin-1 (1 μM) or liproxstatin-1 (1 μM).

| EC50 | Structure (SMILES) |
| --- | --- |
| > 10 µM | C#CC(=O)N(c1cccc(Cl)c1)C1(C(=O)NCc2ccccc2)CCOCC1 [A80, N-Benzyl-4-(N-(3-chlorophenyl)propiolamido)tetrahydro-2H-pyran-4-carboxamide] |

The molecules below were run on hepatocellular carcinoma cell line Hub-7 in the same assay as above. Conditions: in the presence of liproxstatin-1 (1 μM); read-out: Inhibition of Cell Proliferation EC50, Liproxstatin-1.
Type: cell-based
Method: as §1, §2

| EC50 | Structure (SMILES) |
| --- | --- |
| > 10 µM | C#CC(=O)N(c1cccc(Cl)c1)C1(C(=O)NCc2ccccc2)CCOCC1 [A80, N-Benzyl-4-(N-(3-chlorophenyl)propiolamido)tetrahydro-2H-pyran-4-carboxamide] |

Same assay, conditions: read-out: Inhibition of Cell Proliferation EC50, No Ferroptosis inhibitor

| EC50 | Structure (SMILES) |
| --- | --- |
| ≤ 0.1 µM | C#CC(=O)N(c1cccc(Cl)c1)C1(C(=O)NCc2ccccc2)CCOCC1 [A80, N-Benzyl-4-(N-(3-chlorophenyl)propiolamido)tetrahydro-2H-pyran-4-carboxamide] |
